Source: publication PMC6385123, “Design, Synthesis, Anticancer Evaluation and Molecular Modeling of Novel Estrogen Derivatives” (Molecules, 2019)

Key:
[1] = molecular target: T1, p53 ubiquitination (GST-tagged HDM2) (Homo sapiens, UniProt Q00987); assay: In vitro p53 ubiquitination assay; type: biochemical
T1 construct: GS4b-MDM2 RING beads were prepared as above and were used in place of the full-length MDM2; made in house; host or cells: Escherichia coli BL21
Method: Different prepared derivatives were evaluated for their inhibitory potential against p53 ubiquitination. The method is based on incubating different compounds with GST-tagged HDM2, immobilized on glutathione-Sepharose, p53, ubiquitin, E1 and E2 (UbcH5B) ligases. The buffer contained ATP as detailed by Gomha and Abdelaziz. The reaction products were then resolved by SDSPAGE and p53 ubiquitination and were quantified by Western blotting using an anti-p53 antibody.
Briefly, rGSH-S-transferase-tagged MDM2 (GST-MDM2) was expressed in Escherichia coli BL21 cells using 1 mM isopropyl-thio-b-D-galactoside for 3 h. The enzyme was then purified on glutathione-sepharose beads (Amersham). Beads were washed with Tris (pH 7.5). The reaction contained fluorescent ubiquitin (5 µg; Invitrogen), 50 ng mammalian E1 (Enzo), 200 ng human rUbcH5B E2 (Enzo), 200 ng His-p53 (Enzo) and buffer [50 mM Tris pH 8,2 mM dithiothreitol, 5 mM MgCl2, 2 mM adenosine triphosphate (ATP)]. The MPD-compound or control mixture was dose-titrated onto GS4b-MDM2 beads. Incubation at 37 °C was followed by shaking (1200 rpm, 1 h). The reaction was terminated with 3× sodium dodecyl sulfate sample buffer. Finally, unbound fluorescent ubiquitin was drained and the total fluorescent ubiquitin signal was measured using a plate reader (Safire).
The procedure was performed similar to the aforementioned protocol except that 5 µg unlabeled ubiquitin (Enzo) was used. Following incubation, resolving of reaction products was performed using sodium dodecyl sulfate PGE. Analysis was done by western blotting using anti-p53 DO-1. For the MDM2 RING auto-ubiquitination assay, GS4b-MDM2 RING beads were prepared as above and were used in place of the full-length MDM2.

EGFR = EGFR (Homo sapiens, UniProt P00533); assay: EGFR kinase inhibition assay; type: biochemical; settings: 8 μM ATP, poly(Glu,Tyr)4:1 substrate; read-out: IC50 (Mean ± SEM) EGFR
Sequence of EGFR (P00533 25-1210): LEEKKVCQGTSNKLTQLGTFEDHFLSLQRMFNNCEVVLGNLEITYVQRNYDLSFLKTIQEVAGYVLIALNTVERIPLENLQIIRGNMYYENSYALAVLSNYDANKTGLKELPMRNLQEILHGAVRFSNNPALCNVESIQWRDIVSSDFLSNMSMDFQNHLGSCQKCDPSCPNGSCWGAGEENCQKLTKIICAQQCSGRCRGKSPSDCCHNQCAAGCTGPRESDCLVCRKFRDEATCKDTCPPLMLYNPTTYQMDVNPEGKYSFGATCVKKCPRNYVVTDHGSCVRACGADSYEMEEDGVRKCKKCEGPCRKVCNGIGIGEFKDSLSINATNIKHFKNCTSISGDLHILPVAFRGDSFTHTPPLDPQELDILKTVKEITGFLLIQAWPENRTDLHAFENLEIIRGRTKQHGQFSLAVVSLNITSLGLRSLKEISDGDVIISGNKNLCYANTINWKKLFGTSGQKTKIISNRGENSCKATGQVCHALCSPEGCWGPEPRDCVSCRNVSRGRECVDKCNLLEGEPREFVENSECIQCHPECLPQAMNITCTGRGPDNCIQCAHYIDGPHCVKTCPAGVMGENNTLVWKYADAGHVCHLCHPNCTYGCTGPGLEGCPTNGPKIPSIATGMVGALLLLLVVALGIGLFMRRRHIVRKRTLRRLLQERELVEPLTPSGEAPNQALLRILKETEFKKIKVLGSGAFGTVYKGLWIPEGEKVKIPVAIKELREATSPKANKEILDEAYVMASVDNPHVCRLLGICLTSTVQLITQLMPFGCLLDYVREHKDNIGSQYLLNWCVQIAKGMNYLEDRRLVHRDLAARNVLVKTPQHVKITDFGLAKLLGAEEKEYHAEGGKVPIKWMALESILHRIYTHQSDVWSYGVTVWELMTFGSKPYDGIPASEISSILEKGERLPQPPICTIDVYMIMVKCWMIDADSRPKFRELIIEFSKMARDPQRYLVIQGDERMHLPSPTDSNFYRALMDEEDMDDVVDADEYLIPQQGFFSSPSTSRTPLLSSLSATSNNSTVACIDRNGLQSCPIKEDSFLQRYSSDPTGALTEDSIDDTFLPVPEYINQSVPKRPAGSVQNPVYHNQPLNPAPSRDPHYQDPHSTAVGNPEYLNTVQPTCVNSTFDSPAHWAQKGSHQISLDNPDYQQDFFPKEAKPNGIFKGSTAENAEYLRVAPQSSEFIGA
Method: (§1) The EGFR and VEGFR-2 kinase activities were assayed as previously described. The assay was performed in 96-well plates pre-coated with 20 μg mL^−1 poly (Glu, Tyr)4:1 (Sigma-Aldrich Chemie GmbH, Taufkirchen, Germany) as a substrate. In each well, 85 μL of an 8 μM ATP solution and 10 μL of the compound were added at varying concentrations. Experiments were repeated three times. Reactions started with 5 μL of different kinases and incubation for 1 h at 37 °C. Plates were 3X-washed with PBS/0.1% Tween 20. Accordingly, 100 μL of anti-phosphotyrosine (PY99; 1:500 dilutions) antibody was added, and plates were incubated for another hour at room temperature. Plates were then 3X-washed, and addition of goat anti-mouse IgG horseradish peroxidase (100 μL; 1:2000 dilution) diluted in T-PBS containing 5 mg mL^−1 BSA followed. Plates were further incubated at room temperature for another hour, and then 3X-washed. Finally, 100 μL (developing solution, 0.03% H2O2, 2 mg mL^−1 o-phenylenediamine/citrate buffer, 0.1 M, pH 5.5) was added and incubation continued until color development. The reaction was stopped by 100 μL of 2M H2SO4, and the absorption was measured at 492 nm using a multiwell spectrophotometer (VERSAmax™). The inhibition rate (%) was calculated using the equation:Inhibition rate (%) = [1 − (A492/A492Control)] × 100%(1)

MCF-7 cells = assay: In vitro cytotoxic activity, MTT assay, MCF-7; type: cell-based, human
Method: (§2) MCF-7 (human breast cancer) cells, obtained from Sigma-Aldrich Chemie GmbH, Taufkirchen, Germany, were propagated in RPMI-1640 supplemented with 10% heat inactivated FBS, 2 mM L-glutamine, and 1% standard antibiotic solution. Cells were incubated in a 5% CO2 humidified incubator at 37 °C and passaged bi-weekly. The in vitro anti-proliferative activity of the newly synthesized derivatives was assayed using standard MTT technique. Results were expressed as IC50. Experiments were repeated at least in triplicate, to obtain good reproducibility between replicate wells with standard errors below 10%. Furthermore, the cytotoxic effects of the prepared derivatives were evaluated against normal nonmalignant cells, non-tumorigenic MCF-10A, in order to find out if the synthesized derivatives have toxicity against normal cells. Additionally, results were compared with reference compounds (cisplatin and milaplatin) as positive controls.

MCF-10A cells = assay: In vitro cytotoxicity against normal non-tumorigenic cells, MTT assay; type: cell-based; settings: Homo sapiens, normal non-tumorigenic MCF-10A cells, read-out: IC50 (Mean ± SEM) MCF-10A
Method: as §2

VEGFR-2 = VEGFR-2 (Homo sapiens, UniProt P35968); assay: VEGFR-2 kinase inhibition assay; type: biochemical; settings: 8 μM ATP, poly(Glu,Tyr)4:1 substrate; read-out: IC50 (Mean ± SEM) VEGFR-2
Sequence of VEGFR-2 (P35968 20-1356): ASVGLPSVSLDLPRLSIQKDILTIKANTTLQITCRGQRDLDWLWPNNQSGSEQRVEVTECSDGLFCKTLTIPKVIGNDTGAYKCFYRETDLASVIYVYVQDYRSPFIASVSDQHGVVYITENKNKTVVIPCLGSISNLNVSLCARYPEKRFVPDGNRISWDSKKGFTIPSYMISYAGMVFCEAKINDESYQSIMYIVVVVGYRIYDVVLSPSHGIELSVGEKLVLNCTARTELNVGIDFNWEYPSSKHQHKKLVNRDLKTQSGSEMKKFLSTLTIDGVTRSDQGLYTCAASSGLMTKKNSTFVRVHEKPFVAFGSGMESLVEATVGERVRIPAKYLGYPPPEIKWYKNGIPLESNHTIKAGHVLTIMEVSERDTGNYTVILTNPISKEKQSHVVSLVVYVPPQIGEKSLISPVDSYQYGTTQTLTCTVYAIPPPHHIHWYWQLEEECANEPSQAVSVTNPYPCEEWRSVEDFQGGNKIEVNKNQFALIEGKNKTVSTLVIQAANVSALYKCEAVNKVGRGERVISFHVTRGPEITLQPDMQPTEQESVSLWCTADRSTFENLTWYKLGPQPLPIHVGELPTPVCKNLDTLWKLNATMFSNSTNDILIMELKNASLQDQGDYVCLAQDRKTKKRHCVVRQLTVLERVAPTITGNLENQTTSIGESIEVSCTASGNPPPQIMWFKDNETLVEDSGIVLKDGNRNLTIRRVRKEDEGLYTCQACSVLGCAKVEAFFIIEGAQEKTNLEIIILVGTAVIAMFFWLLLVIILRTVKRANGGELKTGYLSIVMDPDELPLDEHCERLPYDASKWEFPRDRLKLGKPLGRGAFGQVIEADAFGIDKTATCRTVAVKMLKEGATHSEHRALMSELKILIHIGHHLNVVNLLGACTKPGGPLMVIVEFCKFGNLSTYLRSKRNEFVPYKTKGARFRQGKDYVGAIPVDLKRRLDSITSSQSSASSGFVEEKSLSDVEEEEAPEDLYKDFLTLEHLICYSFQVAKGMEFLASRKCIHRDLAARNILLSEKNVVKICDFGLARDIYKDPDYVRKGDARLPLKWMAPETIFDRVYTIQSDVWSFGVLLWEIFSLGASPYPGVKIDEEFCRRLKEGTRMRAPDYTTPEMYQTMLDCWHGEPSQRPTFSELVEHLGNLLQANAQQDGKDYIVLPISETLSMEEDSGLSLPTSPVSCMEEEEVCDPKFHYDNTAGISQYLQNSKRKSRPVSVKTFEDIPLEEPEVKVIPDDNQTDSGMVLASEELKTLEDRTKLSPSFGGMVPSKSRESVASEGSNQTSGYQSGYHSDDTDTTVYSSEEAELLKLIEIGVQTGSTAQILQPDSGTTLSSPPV
Method: as §1

MCF-7 xenografts = assay: In vivo breast cancer mouse xenograft model; design: species or system nude mice
Method: The breast cancer xenograft model protocol was approved by the Institutional Animal Use and Care Committee of the University of Alabama at Birmingham (50-01-05-08B). Female athymic pathogen-free nude mice (nu/nu, 4–6 weeks) were used. Firstly, MCF-7 xenografts were initiated by implanting pellets slowly releasing estrogen for two months (1.7mg 17β-estradiol/pellet) subcutaneously in the female nude mice. After 24 h, confluent MCF-7 cells were harvested, washed two times with serum-free medium, re-suspended and injected subcutaneously (s.c.) (5 × 10^6 cells, total volume 0.2 mL) into the left inguinal area of the mice. Caliper measurement was used to measure tumor growth in two perpendicular diameters of the implant after 48 h, and its volume was determined. Mice grafted with MCF-7 were divided into different groups (7–10 mice/group). Untreated mice received the solvent only. Treated groups received different prepared derivatives as previously described.

p53 ubiquitination = assay: In vivo ubiquitination of p53 (transfected cells); type: cell-based
Method: In vivo ubiquitination of p53 was assayed according to [38] Cells were grown for 24 h (50% confluency) before transfection of 1 µg p53, 4 µg MDM2 and 1 µg HIS-ubiquitin with Gene Juice reagent. Grown for another 20 h, cells were exposed to prepared derivatives or controls for 6 h and MG132 for 4 h, then washed and collected in PBS, where 5% of the solution was kept as an input. The remaining pelleted cells (95% after centrifugation) were lysed in 700 µL of ubiquitin buffer A (6 M guanidinium HCl, 300 mM NaCl, 50 mM phosphate pH 8.0, 100 µg/mL N-ethylmaleimide), and sonicated for 5 min at 20% amplitude. Lysates were incubated overnight with Invitrogen Dynabeads His-Tag matrix and washed once with ubiquitin buffers A, B, C and phosphate buffered saline (ubiquitin buffer B: Mix ubiquitin buffer A and ubiquitin buffer C 1:1; ubiquitin buffer C: 300 mM NaCl, 50 mM phosphate pH 8.0, 100 µg/mL N-ethylmaleimide). The washed lysates were resolved by 8% sodium dodecyl sulfate–polyacrylamide gel electrophoresis, followed by immunoblotting with a p53 (DO-1) antibody.

T1 sequence (Q00987 whole entry): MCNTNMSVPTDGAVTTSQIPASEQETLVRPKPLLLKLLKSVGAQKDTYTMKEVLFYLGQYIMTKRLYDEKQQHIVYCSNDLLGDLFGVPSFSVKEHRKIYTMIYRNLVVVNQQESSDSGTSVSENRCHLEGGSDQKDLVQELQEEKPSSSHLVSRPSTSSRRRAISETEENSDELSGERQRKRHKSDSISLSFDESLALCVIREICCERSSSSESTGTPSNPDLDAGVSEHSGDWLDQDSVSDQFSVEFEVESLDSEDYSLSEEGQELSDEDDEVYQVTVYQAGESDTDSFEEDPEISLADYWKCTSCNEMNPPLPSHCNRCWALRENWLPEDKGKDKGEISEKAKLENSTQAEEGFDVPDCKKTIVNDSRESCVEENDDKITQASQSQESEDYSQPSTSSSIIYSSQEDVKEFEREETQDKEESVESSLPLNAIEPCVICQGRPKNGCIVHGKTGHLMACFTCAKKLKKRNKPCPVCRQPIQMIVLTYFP

CC12CCC3c4ccc(O)cc4CCC3C1CC1=C2NC(=N)NC1c1ccccc1Cl (stereo not shown) [Compound 5a, 2′-Imino-6′-(2-chlorophenyl)-estra-1(10),2,4,16(17)-tetraien-[17,16-d]-pyrimidino-3-ol]
IC50 ([1]; GST-tagged HDM2, p53, ubiquitin, E1 and E2 (UbcH5B), read-out: IC50 (Mean ± SEM) In Vitro p53 Ubiquitination): 16.4 ± 0.23 µM
fold more active than standard drug, in vitro p53 ubiquitination ([1]; vs diphenyl imidazole): 15.8 fold
IC50 (EGFR): 0.086 ± 0.0032 µM
IC50 (MCF-7 cells; Homo sapiens, MCF7, MTT assay, MCF-7 cell line, read-out: IC50 (Mean ± SEM) MCF-7): 18.38 ± 0.13 µM
fold more toxic than the least active compound 7b towards MCF-7 (MCF-7 cells; ratio of IC50 values, 5a vs 7b): 2.5 fold
IC50 (MCF-10A cells): 211 ± 7.53 µM
IC50 (VEGFR-2): 0.027 ± 0.0012 µM
melting point: 286 to 288 °C
decrease in tumor growth (MCF-7 xenografts; after 2 days of treatment, vs control animals): about 25.36%
maximal inhibition of tumor growth (MCF-7 xenografts; after 10 days of treatment): 91.1%
inhibition percentage of tumor growth (MCF-7 xenografts; after 14 days of treatment): 88.7%
IC50 (p53 ubiquitination; cells transfected with p53, MDM2, HIS-ubiquitin, exposed 6 h, read-out: IC50 (Mean ± SEM) In Vivo p53 Ubiquitination): 0.22 ± 0.0043 µM
fold more active than standard drug, in vivo p53 ubiquitination (p53 ubiquitination; vs diphenyl imidazole): 8.6 fold
